e = 2'-O-(2-methoxyethyl) (MOE); d = 2'-deoxy (DNA)
Experiments:
rat p38α mRNA = experiment: Rat p38α mRNA levels in NR-8383 cells, quantitative real-time PCR; format: cell-based; conditions: 300 nM oligonucleotide with FuGENE 6, 24 hours, mRNA by quantitative real-time PCR, average of two experiments
Excerpt: (§1) Quantitation of p38α mRNA levels was accomplished by real-time quantitative PCR using the ABI PRISM™ 7600, 7700, or 7900 Sequence Detection System (PE-Applied Biosystems, Foster City, Calif.) according to manufacturer's instructions. This is a closed-tube, non-gel-based, fluorescence detection system which allows high-throughput quantitation of polymerase chain reaction (PCR) products in real-time. As opposed to standard PCR in which amplification products are quantitated after the PCR is completed, products in real-time quantitative PCR are quantitated as they accumulate. This is accomplished by including in the PCR reaction an oligonucleotide probe that anneals specifically between the forward and reverse PCR primers, and contains two fluorescent dyes. A reporter dye (e.g., FAM or JOE, obtained from either PE-Applied Biosystems, Foster City, Calif., Operon Technologies Inc., Alameda, Calif. or Integrated DNA Technologies Inc., Coralville, Iowa) is attached to the 5′ end of the probe and a quencher dye (e.g., TAMRA, obtained from either PE-Applied Biosystems, Foster City, Calif., Operon Technologies Inc., Alameda, Calif. or Integrated DNA Technologies Inc., Coralville, Iowa) is attached to the 3′ end of the probe. When the probe and dyes are intact, reporter dye emission is quenched by the proximity of the 3′ quencher dye. During amplification, annealing of the probe to the target sequence creates a substrate that can be cleaved by the 5′-exonuclease activity of Taq polymerase. […] With each cycle, additional reporter dye molecules are cleaved from their respective probes, and the fluorescence intensity is monitored at regular intervals by laser optics built into the ABI PRISM™ Sequence Detection System. In each assay, a series of parallel reactions containing serial dilutions of mRNA from untreated control samples generates a standard curve that is used to quantitate the percent inhibition after antisense oligonucleotide treatment of test samples.
(§2) Prior to quantitative PCR analysis, primer-probe sets specific to the target gene being measured are evaluated for their ability to be “multiplexed” with a GAPDH amplification reaction. In multiplexing, both the target gene and the internal standard gene GAPDH are amplified concurrently in a single sample. In this analysis, mRNA isolated from untreated cells is serially diluted. Each dilution is amplified in the presence of primer-probe sets specific for GAPDH only, target gene only (“single-plexing”), or both (multiplexing). Following PCR amplification, standard curves of GAPDH and target mRNA signal as a function of dilution are generated from both the single-plexed and multiplexed samples. If both the slope and correlation coefficient of the GAPDH and target signals generated from the multiplexed samples fall within 10% of their corresponding values generated from the single-plexed samples, the primer-probe set specific for that target is deemed multiplexable. Other methods of PCR are also known in the art.
(§3) PCR reagents were obtained from Invitrogen Corporation, (Carlsbad, Calif.). […] The RT reaction was carried out by incubation for 30 minutes at 48° C. Following a 10 minute incubation at 95° C. to activate the PLATINUM® Taq, 40 cycles of a two-step PCR protocol were carried out: 95° C. for 15 seconds (denaturation) followed by 60° C. for 1.5 minutes (annealing/extension).
(§4) Gene target quantities obtained by real time RT-PCR are normalized using either the expression level of GAPDH, a gene whose expression is constant, or by quantifying total RNA using RiboGreen™ (Molecular Probes, Inc. Eugene, Oreg.). GAPDH expression is quantified by real time RT-PCR, by being run simultaneously with the target, multiplexing, or separately. Total RNA is quantified using RiboGreen™ RNA quantification reagent (Molecular Probes, Inc. Eugene, Oreg.). Methods of RNA quantification by RiboGreen™ are taught in Jones, L. J., et al, (Analytical Biochemistry, 1998, 265, 368-374). […]

mouse p38α mRNA = experiment: Mouse p38α mRNA levels in bEND.3 cells, quantitative real-time PCR; format: cell-based; parameters: % Inhib. mouse p38α: concentration or dose not given beside the values; conditions: bEND.3 cells, mRNA by quantitative real-time PCR, average of two experiments
Excerpt: as §1, §2, §3, §4

Substance | % Inhib. rat p38α (rat p38α mRNA) [%] | % Inhib. mouse p38α (mouse p38α mRNA) [%]
320137 (antisense CACACACATCCCTAAGGAGA; sugars from the 5' end e5 d10 e5, all phosphorothioate, methylation of C not given here) [compound 320137] | 44 | 80
320168 (antisense TCACCTCATGGCTTGGCATC; sugars from the 5' end e5 d10 e5, all phosphorothioate, methylation of C not given here) [compound 320168] | 56 | 83
320127 (antisense TGAGCAAAGTAGGCATGCGC; sugars from the 5' end e5 d10 e5, all phosphorothioate, methylation of C not given here) [compound 320127] | 56 | 73
320151 (antisense GAAGGAACCACACTCTCTAA; sugars from the 5' end e5 d10 e5, all phosphorothioate, methylation of C not given here) [compound 320151] | 47 | 90
320169 (antisense TTTGTTCTCACCTCATGGCT; sugars from the 5' end e5 d10 e5, all phosphorothioate, methylation of C not given here) [compound 320169] | 64 | 92
320161 (antisense GCTGAAGCTGGTTAATATGG; sugars from the 5' end e5 d10 e5, all phosphorothioate, methylation of C not given here) [compound 320161] | 66 | 80
320171 (antisense TGGAAAACTGTTTTGTCAAA; sugars from the 5' end e5 d10 e5, all phosphorothioate, methylation of C not given here) [compound 320171] | 2 | 35
320112 (antisense CGTTCTTCCGGTCAACAGCT; sugars from the 5' end e5 d10 e5, all phosphorothioate, methylation of C not given here) [compound 320112] | 58 | 93
320109 (antisense GCCCCCATGAGATGGGTCAC; sugars from the 5' end e5 d10 e5, all phosphorothioate, methylation of C not given here) [compound 320109] | 34 | 69
320135 (antisense ACCCCCTTCCACCATGAAGG; sugars from the 5' end e5 d10 e5, all phosphorothioate, methylation of C not given here) [compound 320135] | 47 | 95
320172 (antisense ACTCTCGCGAGAACAGCTCC; sugars from the 5' end e5 d10 e5, all phosphorothioate, methylation of C not given here) [compound 320172] | 0 | 39
320125 (antisense GCTGCTGTGATCCTCTTATC; sugars from the 5' end e5 d10 e5, all phosphorothioate, methylation of C not given here) [compound 320125] | 63 | 67
320131 (antisense CTTCCCCTCACAGTGAAGTG; sugars from the 5' end e5 d10 e5, all phosphorothioate, methylation of C not given here) [compound 320131] | 39 | 92
320132 (antisense TATTTGGAGAGTTCCCATGA; sugars from the 5' end e5 d10 e5, all phosphorothioate, methylation of C not given here) [compound 320132] | 56 | 85

— patent US20040171566A1, “Antisense modulation of p38 mitogen activated protein kinase expression” (priority 1999, published 2004)
